Data on two substances can be found in patent US6355785B1, “Guanosine-rich oligonucleotide integrase inhibitors” (Aronex Pharmaceuticals, Inc., priority 1993, dated 2002).

The term CC50 denotes the concentration that lowers cell viability or growth by half.

pIC50: −log10 of the molar value. Values joined by “and” are separate entries in the source; they are usually repeats but may differ in a detail not shown here. Equal values may be shown once. Read-outs that look alike come from different tables or passages of the source.

For one data set, the system named is Macrophages. The format is cell-based, human. The method, then:
(§1) In other experiments of the effect of T30177 on the viability of primary human PBMCs, PBLs and macrophages was determined using the trypan blue dye exclusion technique. Griffiths, B., IRL Press, p. 48 (1992), or by measuring the degree of [^3H]thymidine or [^3]leucine uptake in these cells (McGrath, M. S., et al. Proc. Natl. Acad. Sci. USA 86:2844-2848 (1989)).
(§2) Cytotoxicity Assays. The cytotoxicity of T30177 was determined using several different cell lines and primary human cells as described above. The cytotoxicity profile obtained for log phase growing cells was variable depending upon the cell line used, while the slower growing PBMCs, PBLs, and macrophages all tolerated the compound at concentrations exceeding 100 μM as monitored using the trypan blue exclusion, [^3H]thymidine uptake, or [^3H]leucine uptake techniques.

A further data set deals with PBLs. Type of data set: cell-based, human. How it is done:
as §1, §2

Another data set concerns PBMC. Type of data set: cell-based, human. How it is done:
as §1, §2

In data set [1] the test system is HIV-1SKI. In words: Single cycle analysis of HIV-1 cDNA, CEM-SS cells. Type of data set: cell-based. Conditions: 10- to 100-fold over IC50.
For data set [2], the target named is T1, recombinant RT (HIV-1BH10) (Human immunodeficiency virus type 1 group M subtype B, UniProt P03366).
T1 construct: Purified recombinant RT (HIV-1BH10) was obtained from the University of Alabama; purchased University of Alabama, Center for AIDS research (obtained from)
In words: Reverse transcriptase enzyme inhibition assays. The format is biochemical.

Details of data set [3]: species or system cynomolgus monkeys. The conditions noted are these: cynomolgus monkey, in vivo. How it is done: Dosing. Twelve experimentally naive cynomolgus monkeys were assigned to four groups of three animals each. Prior to dosing, each animal was lightly sedated with a combination of ketamine (1 0 mg/kg) and diazepam (0.5 mg/kg), and a catheter was introduced into the femoral artery for recording central arterial pressure. Monkeys were given a single intravenous infusion of 5, 20, or 50 mg AR177/kg or saline over ten minutes through a cephalic vein catheter using a Harvard infusion pump. […] The concentration of AR177 in dosing solutions was confirmed post experiment by absorbance at 280 nm on a spectrophotometer. […] Electrocardiograms (ECGs), central pressure, and heart rate were recorded continuously for 120 minutes following the initiation of doing. […]
Serum chemistry parameters. The following were determined: sodium, potassium, chloride, carbon dioxide, total bilirubin, direct bilirubin, indirect bilirubin, alkaline phosphatase, lactate dehydrogenase, aspartate aminotransferase, alanine aminotransferase, gamma-glutamyltransferase, calcium, phosphorus, glucose, urea nitrogen, creatinine, uric acid total protein, albumin, globulin, cholesterol and triglycerides. The samples were analyzed at Sierra Nevada Laboratories (Reno, Nev.).

Details of data set [4]: species or system cynomolgus monkeys. Conditions: cynomolgus monkey, in vivo. How it is done: Serum chemistry parameters. Serum chemistry was determined pre-study, on day 24 (one day after the 12th dose), and on day 37 in the recovery monkeys. The following were determined sodium, potassium, chloride, carbon dioxide, total bilirubin, direct bilirubin, indirect bilirubin alkaline phosphatase, lactate dehydrogenase, aspartate aminotransferase, alanine aminotransferase, gammaglutamyltransferase, calcium, phosphorus, glucose, urea nitrogen, creatinine, uric acid total protein, albumin, globulin, cholesterol and triglycerides. Serum chemistry was determined at Sierra Nevada Laboratories (Reno, Nev.).
This is another data set of the same source.

Data set [5] concerns HIV-1SKI. In words: Analysis of replicated viral DNA (Hirt fractions), CEM-SS cells. The format is cell-based. How it is done:
Analysis of viral replication. CEM-SS cells (2×10^7) were infected with HIV-1SKI (MOI of I) for 45 minutes at 37 ° C. with gentle mixing. Following virus attachment, the cells were gently pelleted, washed twice and resuspended in complete tissue culture medium. The cells were then divided into aliquots, treated with various concentrations of drug and placed in T75 culture flasks. The cells were incubated at 37° C. for 18-20 hours and then harvested by centriguation. To extract nucleic acids for analysis of HIV-1 integration low- and high-molecular weight DNA were prepared from HIV-1 infected cells (untreated or treated with increasing concentrations of drug) according to the protocol originally described by Hirt (Hirt, B. J., J. Mol. Biol. 26:365-369 (1967)) and modified by Gowda et al., Gowda, et al., J. Immunol. 142:773-780 (1989).
DNA (300 ng), obtained from the low-molecular weight Hirt fractions, was used as the template in PCR analysis undergoing a 30 cycle amplification reaction using the conditions described by Steinkasserer et al. (Steinkasserer, et al., J. Virol. 69:814-824 (1995)). […] PCR products were separated by agarose gel electrophoresis and visualized by ethidium bromide staining.

The format of data set [6] is in vivo, cynomolgus monkeys. The method, then:
Dosing. Twelve experimentally naive cynomolgus monkeys were assigned to four groups of three animals each. Prior to dosing, each animal was lightly sedated with a combination of ketamine (1 0 mg/kg) and diazepam (0.5 mg/kg), and a catheter was introduced into the femoral artery for recording central arterial pressure. Monkeys were given a single intravenous infusion of 5, 20, or 50 mg AR177/kg or saline over ten minutes through a cephalic vein catheter using a Harvard infusion pump. Arterial blood samples were drawn at −10, +10, +20, +40, +60 and +120 minutes relative to the initiation of infusion into EDTA-containing tubes for hematology, complement factors, coagulation assay, serum chemistry, and plasma AR177 determination. At 24 hours post-infusion, blood was drawn via the femoral vein into EDTA-containing tubes for these same parameters. The concentration of AR177 in dosing solutions was confirmed post experiment by absorbance at 280 nm on a spectrophotometer. For the determination of AR177 by HPLC, the plasma fraction was obtained by low speed centrifugation of blood, and stored at −20° C. until used. Electrocardiograms (ECGs), central pressure, and heart rate were recorded continuously for 120 minutes following the initiation of doing. Table E-1 summarizes the study design. The animals were observed twice daily pharmacotoxic signs and general health beginning two days before dosing and for seven days following dosing. The monkeys were not necropsied at the end of the study.

The conditions of data set [7]: cynomolgus monkey, in vivo.
Data set [8] concerns the target recombinant HIV-1 integrase (wild-type) (Human immunodeficiency virus type 1 group M subtype B, UniProt P12497). The conditions noted are these: previously reported by Ojwang et al., cited from earlier work.

On to “5′-gtggtgggtgggtgggt-3′ (GTGGTGGGTGGGTGGGT; phosphorothioate termini, further chemistry not given here) [T30177]”, for which the CC50 in the data set with Macrophages, with PBLs and with PBMC was greater than 100 µM throughout. The TC25 with Macrophages, in the data set with PBLs and in the data set with PBMC was greater than 100 µM each time. The TC95 in the data set on Macrophages, in the data set with PBLs and in the data set with PBMC was greater than 100 µM throughout. The “viral cDNA 12 hours post-infection, drug added at time of infection” value in the data set with HIV-1SKI [1] is listed as “viral cDNA was detected”. For the same substance, the pIC50 in data set [2] (depending upon the template, read-out: 50% inhibitory value, viral reverse transcriptase) was 5.00 to 6.00; in data set [2] (template gapped duplex DNA, duplicate experiments, read-out: IC50 recombinant HIV-1 RT), < 5.30 and 5.10 and 5.00. For the same substance, the serum chemistry parameters entry in data set [3] is listed as “no changes”. In data set [4], the “serum chemistry or urinalysis parameters” value is given as “no treatment-related changes”. The IC50 virus-induced cytopathogenicity with HSV-2 (G) (HSV-2 (G)) and in the data set with Coxsackie virus (B4) (Coxsackie virus (B4)) was greater than 200 µg/mL in each case. For the same substance, the “MCC minimum concentration altering normal cell morphology” value in the data set with HSV-2 (G) (HSV-2 (G) assay) is reported as 400 μg/mL; in the data set on Coxsackie virus (B4) (Coxsackie virus (B4) assay), “≧400 μg/mL”.
For the substance “5′-gtggtgggtgggtgggt-3′ [T30177] (GTGGTGGGTGGGTGGGT; phosphorothioate termini, further chemistry not given here)”, in the data set on HIV-1SKI [5], the “extent of viral replication (PCR of Hirt DNA)” value is on record as “up to an including the production of 2-LTR circles”. For the same substance, the “emesis during the infusion” value is listed as “all of the monkeys” in data set [6] (20 mg/kg) and “two of the three animals” in [6] (50 mg/kg). Moreover, the “blood pressure, heart rate, electrocardiographic activity” value in data set [6] (5, 20, 50 mg/kg) is “No clearly treatment-related changes”. Besides, the mortality result in data set [6] (up to 50 mg/kg) was “no animals died”. Besides, the IC50 virus-induced cytopathogenicity in the data set on HSV-1 (HSV-1 (KOS)), in the data set with HSV-1 (HSV-1 TK (B2006)) and in the data set on HSV-1 (HSV-1 TK (VMW1837)) was greater than 200 µg/mL each time. The “MCC minimum concentration altering normal cell morphology” value in the data set on HSV-1 (HSV-1 (KOS) assay), in the data set on HSV-1 (HSV-1 TK (B2006) assay) and with HSV-1 (HSV-1 TK (VMW1837) assay) was 400 μg/mL throughout. For the same substance, the “histopathology of organs and tissues” value in [7] was “No clearly treatment-related histopathologic changes”. In addition, the organ weight result in [7] was “no effects on organ weight”. For the same substance, the pIC50 in [8] (read-out: IC50 3′-PROC) is 7.10; in data set [8] (read-out: IC50 STR · TRA), 7.31.
